Measurements published in patent publication US11325900B2, “5-(pyrimidin-4-yl)thiazol-2-yl urea derivatives as therapeutic agents” (AUCENTRA HOLDINGS PTY LTD, priority 2018, dated 2022).

Columns and labels:
[1] = tested on: MV-4-11; experiment: Cell viability assay (resazurin, leukemia cell lines), 72 h growth inhibition; format: cell-based; settings: Homo sapiens, MV4-11, MV-4-11 cells
Excerpt: (§1) Compounds from Example 1 may be subjected to a standard MTT (3-(4,5-dimethylthiazol-2-yl)-2,5-diphenyltetrazolium bromide) and resazurin assays on solid tumour cell lines and leukemia cell lines, respectively, as previously reported (Wang S et al., J Med Chem 47:1662-1675, 2004 and Diab S e al. CheMedChem 9:962-972, 2014). Compound concentrations required to inhibit 50% of cell growth (GI50) can be calculated using non-linear regression analysis.

[2] = biological target: T1, CDK8/CycC (Homo sapiens, UniProt P49336); experiment: Radiometric protein kinase assay (33PanQinase Activity Assay, ProQinase); format: biochemical; settings: 1.0 μM ATP, 1.0 μg/50 μL substrate RBER-IRStide, duplicate measurements, read-out: CDK8 Kinase inhibition IC50
T1 construct: purchased ProQinase GmbH, Freiburg, Germany
T1 sequence (P49336 whole entry): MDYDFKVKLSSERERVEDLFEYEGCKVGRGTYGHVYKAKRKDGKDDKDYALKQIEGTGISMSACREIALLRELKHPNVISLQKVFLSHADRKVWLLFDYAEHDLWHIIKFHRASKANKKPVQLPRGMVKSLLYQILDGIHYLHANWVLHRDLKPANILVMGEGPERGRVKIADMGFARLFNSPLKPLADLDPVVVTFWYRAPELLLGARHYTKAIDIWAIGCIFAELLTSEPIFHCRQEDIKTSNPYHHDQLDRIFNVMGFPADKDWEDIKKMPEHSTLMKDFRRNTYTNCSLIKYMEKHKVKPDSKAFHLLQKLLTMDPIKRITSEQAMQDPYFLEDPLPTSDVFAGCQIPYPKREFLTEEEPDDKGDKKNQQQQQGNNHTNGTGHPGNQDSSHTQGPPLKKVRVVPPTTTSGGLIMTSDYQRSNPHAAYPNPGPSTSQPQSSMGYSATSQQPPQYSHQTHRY
T1 sequence (P24863 whole entry partner): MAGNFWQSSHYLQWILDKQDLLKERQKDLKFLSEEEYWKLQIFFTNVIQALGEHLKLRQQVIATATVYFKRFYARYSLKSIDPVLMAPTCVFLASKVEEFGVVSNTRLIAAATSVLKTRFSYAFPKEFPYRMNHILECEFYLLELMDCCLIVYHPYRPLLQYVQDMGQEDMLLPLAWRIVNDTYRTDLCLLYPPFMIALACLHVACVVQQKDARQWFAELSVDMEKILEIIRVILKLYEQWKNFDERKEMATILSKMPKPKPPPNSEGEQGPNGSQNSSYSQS
Protocol: The kinase activity of CDK8/CycC was measured using a radiometric protein kinase assay (33PanQinase® Activity Assay) by ProQinase GmbH, Freiburg, Germany, with the protocols shown at www.proqinase.com/sites/default/files/public/uploads/WildtypeProfiler/radiometric_assay_v05_2012_manual.pdf. IC50 determination (8.3 nM with 1.0 μM ATP and 1.0 μg/50 μL of substrate RBER-IRStide) was performed as duplicate measurements and calculated using Quattro Workflow V3.1.1 (Quattro Research GmbH, Germany). Apparent inhibition constants (Ki) values were calculated from Km (ATP) and IC50 values for the respective kinases.

[3] = tested on: HCT-116; experiment: Cell viability assay (MTT, solid tumour cell lines), 72 h growth inhibition; format: cell-based; settings: Homo sapiens, HCT-116 cells
Excerpt: as §1

| GI50 [1] [nM] | IC50 [2] [nM] | GI50 [3] [nM] | Structure (SMILES) |
| --- | --- | --- | --- |
| 639 ± 120 | 36 | 1510 ± 60 | CNc1nccc(-c2sc(NC(=O)Nc3ccccc3)nc2C)n1 [Compound 1, 1-(4-Methyl-5-(2-(methylamino)pyrimidin-4-yl)thiazol-2-yl)-3-phenylurea] |
| 952 ± 200 | 42 | 1590 ± 60 | CNc1nccc(-c2sc(NC(=O)Nc3ccccc3F)nc2C)n1 [Compound 3, 1-(2-Fluorophenyl)-3-(4-methyl-5-(2-(methylamino)pyrimidin-4-yl)thiazol-2-yl)urea] |
| 457 ± 180 | 49 | 537 ± 140 | CNc1nccc(-c2sc(NC(=O)Nc3ccccc3OC)nc2C)n1 [Compound 4, 1-(2-Methoxyphenyl)-3-(4-methyl-5-(2-(methylamino)pyrimidin-4-yl)thiazol-2-yl)urea] |
| 3810 ± 580 | 25 | 7100 ± 960 | CNc1nccc(-c2sc(NC(=O)Nc3ccc(C(F)(F)F)c(Cl)c3)nc2C)n1 [Compound 5, 1-(3-Chloro-4-(trifluoromethyl)-phenyl)-3-(4-methyl-5-(2-(methylamino)pyrimidin-4-yl)thiazol-2-yl)urea] |
| 526 ± 40 | 41 | 519 ± 160 | CNc1nccc(-c2sc(NC(=O)Nc3cc(C(F)(F)F)ccc3C(F)(F)F)nc2C)n1 [Compound 9, 1-(2,5-Bis(trifluoromethyl)phenyl)-3-(4-methyl-5-(2-(methylamino)-pyrimidin-4-yl)thiazol-2-yl)urea] |
| 870 ± 360 | 10 | 510 ± 30 | CNc1nccc(-c2sc(NC(=O)Nc3cccc(C(F)(F)F)c3)nc2C)n1 [Compound 10, 1-(4-Methyl-5-(2-(methylamino)-pyrimidin-4-yl)thiazol-2-yl)-3-(3-(trifluoromethyl)phenyl)urea] |
| 1480 ± 1320 | 33 | 693 ± 30 | CNc1nccc(-c2sc(NC(=O)Nc3cccc(Cl)c3)nc2C)n1 [Compound 11, 1-(3-Chlorophenyl)-3-(4-methyl-5-(2-(methylamino)pyrimidin-4-yl)thiazol-2-yl)urea] |
| 2110 ± 1640 | 7 | 6400 ± 270 | CNc1nccc(-c2sc(NC(=O)Nc3cccc(Br)c3)nc2C)n1 [Compound 12, 1-(3-Bromophenyl)-3-(4-methyl-5-(2-(methylamino)pyrimidin-4-yl)thiazol-2-yl)urea] |
| 3900 ± 1100 | 6 | 2770 ± 210 | CNc1nccc(-c2sc(NC(=O)Nc3cccc(C)c3)nc2C)n1 [Compound 13, 1-(4-Methyl-5-(2-(methylamino)pyrimidin-4-yl)thiazol-2-yl)-3-(m-tolyl)urea] |
| 585 ± 30 | 10 | 5080 ± 820 | CNc1nccc(-c2sc(NC(=O)Nc3cccc([N+](=O)[O-])c3)nc2C)n1 [Compound 14, 1-(4-Methyl-5-(2-(methylamino)pyrimidin-4-yl)thiazol-2-yl)-3-(3-nitrophenyl)urea] |
| 565 ± 40 | 8 | 6250 ± 610 | CNc1nccc(-c2sc(NC(=O)Nc3cccc(C#N)c3)nc2C)n1 [Compound 15, 1-(3-Cyanophenyl)-3-(4-methyl-5-(2-(methylamino)pyrimidin-4-yl)thiazol-2-yl)urea] |
| 3510 ± 790 | 15 | 5970 ± 723 | CNc1nccc(-c2sc(NC(=O)Nc3cccc(C(C)C)c3)nc2C)n1 [Compound 17, 1-(3-Isopropylphenyl)-3-(4-methyl-5-(2-(methylamino)pyrimidin-4-yl)thiazol-2-yl)urea] |
| 5000 ± 630 | 25 | 4290 ± 523 | CNc1nccc(-c2sc(NC(=O)Nc3cccc(OC(F)(F)F)c3)nc2C)n1 [Compound 18, 1-(4-Methyl-5-(2-(methylamino)-pyrimidin-4-yl)thiazol-2-yl)-3-(3-(trifluoromethoxy)phenyl)urea] |
| 939 ± 60 | 6 | 4530 ± 980 | CNc1nccc(-c2sc(NC(=O)Nc3cccc(OC(F)F)c3)nc2C)n1 [Compound 20, 1-(3-(Difluoromethoxy)phenyl)-3-(4-methyl-5-(2-(methylamino)-pyrimidin-4-yl)thiazol-2-yl)urea] |
| 3350 ± 190 | 9 | 6130 ± 910 | CNc1nccc(-c2sc(NC(=O)Nc3cccc(SC)c3)nc2C)n1 [Compound 21, 1-(4-Methyl-5-(2-(methylamino)-pyrimidin-4-yl)thiazol-2-yl)-3-(3-(methylthio)phenyl)urea] |
| 4630 ± 1560 | 20 | 4310 ± 750 | CNc1nccc(-c2sc(NC(=O)Nc3cccc(SC(F)(F)F)c3)nc2C)n1 [Compound 22, 1-(4-Methyl-5-(2-(methylamino)-pyrimidin-4-yl)thiazol-2-yl)-3-(3-((trifluoromethyl)thio)phenyl)urea] |
| 3170 ± 530 | 26 | 4960 ± 120 | CNc1nccc(-c2sc(NC(=O)Nc3cccc(S(=O)(=O)C(F)(F)F)c3)nc2C)n1 [Compound 23, 1-(4-Methyl-5-(2-(methylamino)pyrimidin-4-yl)-thiazol-2-yl)-3-(3-((trifluoromethyl)-sulfonyl)phenyl)urea] |
| 3480 ± 9530 | 12 | 7250 ± 310 | CNc1nccc(-c2sc(NC(=O)Nc3ccc(Cl)c(C(F)(F)F)c3)nc2C)n1 [Compound 24, 1-(4-Chloro-3-(trifluoromethyl)-phenyl)-3-(4-methyl-5-(2-(methylamino)-pyrimidin-4-yl)thiazol-2-yl)urea] |
| 2230 ± 140 | 13 | 5850 ± 1140 | CNc1nccc(-c2sc(NC(=O)Nc3ccc(F)c(C(F)(F)F)c3)nc2C)n1 [Compound 25, 1-(4-Fluoro-3-(trifluoromethyl)phenyl)-3-(4-methyl-5-(2-(methylamino)-pyrimidin-4-yl)thiazol-2-yl)urea] |
| 2560 ± 490 | 15 | 5100 ± 660 | CNc1nccc(-c2sc(NC(=O)Nc3ccc(C)c(C(F)(F)F)c3)nc2C)n1 [Compound 26, 1-(4-Methyl-3-(trifluoromethyl)-phenyl)-3-(4-methyl-5-(2-(methylamino)pyrimidin-4-yl)thiazol-2-yl)urea] |
| 4160 ± 800 | 53 | 5640 ± 320 | CNc1nccc(-c2sc(NC(=O)Nc3ccc(C(F)(F)F)c(C(F)(F)F)c3)nc2C)n1 [Compound 27, 1-(3,4-Bis(trifluoromethyl)phenyl)-3-(4-methyl-5-(2-(methylamino)-pyrimidin-4-yl)thiazol-2-yl)urea] |
| 3280 ± 640 | 26 | 772 ± 250 | CNc1nccc(-c2sc(NC(=O)Nc3ccc(C(F)(F)F)c(F)c3)nc2C)n1 [Compound 28, 1-(3-Fluoro-4-(trifluoromethyl)phenyl)-3-(4-methyl-5-(2-(methylamino)-pyrimidin-4-yl)thiazol-2-yl)urea] |
| 2160 ± 1170 | 13 | 7770 ± 430 | CNc1nccc(-c2sc(NC(=O)Nc3ccc(C)c(Cl)c3)nc2C)n1 [Compound 29, 1-(3-Chloro-4-methylphenyl)-3-(4-methyl-5-(2-(methylamino)-pyrimidin-4-yl)thiazol-2-yl)urea] |
| 4390 ± 1020 | 8 | 2350 ± 3210 | CNc1nccc(-c2sc(NC(=O)Nc3ccc(Cl)c(C)c3)nc2C)n1 [Compound 30, 1-(4-Chloro-3-methylphenyl)-3-(4-methyl-5-(2-(methylamino)-pyrimidin-4-yl)thiazol-2-yl)urea] |
| 945 ± 50 | 22 | 6830 ± 1010 | CNc1nccc(-c2sc(NC(=O)Nc3ccc(CN4CCOCC4)c(Cl)c3)nc2C)n1 [Compound 31, 1-(3-Chloro-4-(morpholinomethyl)phenyl)-3-(4-methyl-5-(2-(methylamino)-pyrimidin-4-yl)thiazol-2-yl)urea] |
| < 1 | 12 | 366 ± 90 | CNc1nccc(-c2sc(NC(=O)Nc3ccc(CN4CCN(C)CC4)c(C(F)(F)F)c3)nc2C)n1 [Compound 32, 1-(4-Methyl-5-(2-(methylamino)-pyrimidin-4-yl)thiazol-2-yl)-3-(4-((4-methylpiperazin-1-yl)methyl)-3-(trifluoromethyl)phenyl)urea] |
| < 1 | 10 | 457 ± 30 | CCN1CCN(Cc2ccc(NC(=O)Nc3nc(C)c(-c4ccnc(NC)n4)s3)cc2C(F)(F)F)CC1 [Compound 33, 1-(4-((4-Ethylpiperazin-1-yl)methyl)-3-(trifluoromethyl)phenyl)-3-(4-methyl-5-(2-(methylamino)-pyrimidin-4-yl)thiazol-2-yl)urea] |
| 68 ± 30 | 9 | 7840 ± 390 | CNc1nccc(-c2sc(NC(=O)Nc3ccc(CN4CCOCC4)c(C(F)(F)F)c3)nc2C)n1 [Compound 37, 1-(4-Methyl-5-(2-(methylamino)-pyrimidin-4-yl)thiazol-2-yl)-3-(4-(morpholinomethyl)-3-(trifluoromethyl)phenyl)urea] |
| 1520 ± 800 | 9 | 5960 ± 440 | CNc1nccc(-c2sc(NC(=O)Nc3ccc(Cl)cc3)nc2C)n1 [Compound 43] |
| 2600 ± 460 | 7 | 2370 ± 50 | CNc1nccc(-c2sc(NC(=O)Nc3ccc(C)cc3)nc2C)n1 [Compound 44, 1-(4-Methyl-5-(2-(methylamino)pyrimidin-4-yl)thiazol-2-yl)-3-(p-tolyl)urea] |
